Assay results as given in paper PMC11267565, “Glutathione-Based Photoaffinity Probe Identifies Caffeine as a Positive Allosteric Modulator of the Calcium-Sensing Receptor” (ACS Chemical Biology, 2024).

What was measured:
[1] = molecular target: T1, calcium-sensing receptor (CaSR) (Homo sapiens, UniProt P41180); test: concentration-dependent competition with DAZ-G photo-conjugation in cells; format: cell-based; design: FLAG-CaSR
T1 sequence (P41180 20-1078): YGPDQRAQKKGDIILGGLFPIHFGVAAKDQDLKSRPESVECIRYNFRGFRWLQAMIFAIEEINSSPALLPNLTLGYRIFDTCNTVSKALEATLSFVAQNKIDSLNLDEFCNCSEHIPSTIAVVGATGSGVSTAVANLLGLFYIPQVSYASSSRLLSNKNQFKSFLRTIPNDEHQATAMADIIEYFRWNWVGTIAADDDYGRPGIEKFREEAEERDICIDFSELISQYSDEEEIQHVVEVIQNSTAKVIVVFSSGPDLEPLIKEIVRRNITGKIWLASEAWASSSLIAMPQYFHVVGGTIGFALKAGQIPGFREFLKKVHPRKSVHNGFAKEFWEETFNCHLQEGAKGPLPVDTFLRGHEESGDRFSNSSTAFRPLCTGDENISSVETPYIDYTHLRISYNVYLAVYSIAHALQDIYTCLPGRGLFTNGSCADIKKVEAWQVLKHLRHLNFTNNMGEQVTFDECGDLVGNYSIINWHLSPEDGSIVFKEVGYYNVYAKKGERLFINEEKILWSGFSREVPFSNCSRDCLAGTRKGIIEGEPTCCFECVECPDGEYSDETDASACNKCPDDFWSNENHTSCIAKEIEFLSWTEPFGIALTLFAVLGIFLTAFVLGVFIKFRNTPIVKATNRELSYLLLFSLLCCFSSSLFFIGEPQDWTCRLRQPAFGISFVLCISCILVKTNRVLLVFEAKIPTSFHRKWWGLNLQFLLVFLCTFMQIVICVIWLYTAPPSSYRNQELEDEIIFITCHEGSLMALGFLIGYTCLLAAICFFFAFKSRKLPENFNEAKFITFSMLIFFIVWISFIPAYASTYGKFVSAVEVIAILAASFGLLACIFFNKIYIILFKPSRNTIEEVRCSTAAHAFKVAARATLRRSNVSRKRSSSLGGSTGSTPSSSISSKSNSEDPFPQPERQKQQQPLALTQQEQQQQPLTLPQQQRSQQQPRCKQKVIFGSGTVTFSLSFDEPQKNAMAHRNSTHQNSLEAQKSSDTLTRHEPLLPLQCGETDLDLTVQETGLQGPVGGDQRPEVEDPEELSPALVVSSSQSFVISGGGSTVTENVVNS

[2] = molecular target: T1, calcium-sensing receptor (CaSR); test: Cal-520 Ca2+ flux in HEK293-CaSR cells (EC50); competition with DAZ-G photo-conjugation; E837A and S170A mutants; format: cell-based

SMILES | concentration-dependent competition with DAZ-G photo-conjugation in cells [1] | EC50 [2]
N[C@@H](Cc1ccccc1)C(=O)O [L-Phe] | L-Phe, a prototype ligand for ABS, induced concentration-dependent competition to DAZ-G | –
Cn1c(=O)c2c(ncn2C)n(C)c1=O [caffeine] | – | 3.35 µM
